The text below walks through data of patent publication US20210145833A1, “Methods and Compositions for Hair Growth by Activating Autophagy” (The Regents of the University of California, priority 2018, published 2021).

The subject of data set [1] is C57BL/6J mouse dorsal skin. Put plainly: Assay for hair regeneration in mice (topical treatment of shaved telogen dorsal skin). As to conditions: for Rapid anagen entry on whole dorsal telogen skin: among treated mice.
Experimental: Anagen in black mice is macroscopically recognizable by the melanin pigment visible through the skin, as the melanogenic activity of follicular melanocytes is strictly coupled to the anagen stage of the hair cycle.
All compounds were tested in both male and female mice. Every experiment was repeated independently at least 2 times. Some treatments with different agents were performed concurrently with shared control arms. C57BL/6J male mice were obtained at 6 or 8 weeks of age from Jackson Laboratories (Bar Harbor, ME). C57BL/6J female mice were obtained at 8 weeks of age from Jackson Laboratories (Bar Harbor, Me.). Mice were fed a standard chow diet and provided ad libitum access to food and water throughout the study. Mice were shaved dorsally in telogen, i.e., postnatal days of about 43-45 for males (unless otherwise indicated) and Day 58 for females, respectively. Vehicle control (25 μL DMSO, unless otherwise indicated) or test compounds (in 25 μL DMSO, unless otherwise indicated) were topically applied on the shaved skin every other day (unless otherwise described) for the duration of the experiments (3-6 weeks). Appearance of skin pigmentation and hair growth were monitored and documented by photos and videos. Progression was also assigned a value from 0 to 100 based on pigmentation levels and hair shaft density, with 0 indicating no hair growth (and no pigmentation) and higher number corresponding to darker skin and larger areas of dense hair growth. […] The vehicle DMSO was also mixed with PLO base for topical application.
In another data set the test system is p62 transcript. The experiment in a line: Quantitative RT-PCR of p62 transcript in treated skin. As to conditions: 24 hours post-treatment, B2m internal control. It counts as in vivo, mouse. How it is done:
At 24 hours post-treatment, telogen skin samples were harvested and total RNA was isolated using TRIzol reagent (Invitrogen) from whole thickness mouse skin tissue. cDNA was synthesized using iScript Reverse Transcription Supermix (Bio-Rad). iTaq Universal SYBR Green Supermix (Bio-Rad) and a Bio-Rad CFX Connect instrument were used for quantitative RT-PCR. The primer sequences used for RT-qPCR are as follows: […]

For a further data set, the system named is p62/SQSTM1. Put plainly: Western blot of treated mouse skin: p62. Type of data set: in vivo. As to conditions: treated mouse telogen skin. As for the experimental part: (§1) Male mice were shaved and treated every other day starting on Postnatal Day 43. After 5 days, telogen skin samples were harvested and stage confirmed. […] Tissue and cell debris were removed by centrifugation and the lysate was boiled for 5 min in 1×SDS loading buffer containing 5% β-mercaptoethanol.
(In general: Immunoblotting shows a protein as a band on a membrane.)

In data set [2] the test system is Beclin 1 S14 phosphorylation. The experiment in a line: Western blot of treated mouse skin: phosphorylated Beclin 1 S14. As to conditions: Day 5 post-treatment. Type of data set: in vivo. As for the experimental part: as §1
A further data set deals with LC3. The experiment in a line: Western blot of treated mouse skin: LC3. It counts as in vivo. As to conditions: telogen skin of mice treated topically 5 days. How it is done: as §1
In data set [3] the test system is Beclin 1 S91 phosphorylation. Put plainly: Western blot of treated mouse skin: phosphorylated Beclin 1 S91. It counts as in vivo. How it is done: (§2) Male mice were shaved and treated every other day starting on Postnatal Day 43. After 5 days, telogen skin samples were harvested and stage confirmed. Mouse skin tissue lysate was prepared by homogenization in T-PER Tissue Protein Extraction Buffer (Thermo Scientific, 78510) with protease inhibitors (Roche, 11836153001) and phosphatase inhibitors (Sigma, P5726) by FastPrep-24 (MP Biomedicals). Tissue and cell debris were removed by centrifugation and the lysate was boiled for 5 min in 1×SDS loading buffer containing 5% β-mercaptoethanol. Samples were then subjected to SDS-PAGE on NuPAGE Novex 12% Bis-Tris gels (Invitrogen, NP0343BOX), and western blotting was carried out with antibodies against LC3 (Novus, NB100-2220), p62 (Sigma, P0068), Phospho-Beclin-1 (Ser15) (corresponding to Ser14 in mouse) (Cell Signaling, 84966), Phospho-Beclin-1 (Ser93) (corresponding to Ser91 in mouse) (Cell Signaling, 14717), Beclin-1 (Abcam, ab207612), or GAPDH (Ambion, AM4300).

For data set [4], the system named is aged C57BL/6J mice. Put plainly: Topical treatment of shaved aged mice (pilot experiments). It counts as in vivo, mouse. The note with it: pilot experiments on aged mice (data not shown). As for the experimental part: For oral α-KB treatment, aged male and female C57BL/6J mice were obtained at 87 weeks of age (NIA aged rodent colonies). Mice were housed in a controlled SPF facility (22±2° C., 6:00-18:00, 12 h/12 h light/dark cycle) at UCLA. […] For topical α-KB treatment, aged male C57BL/6J mice were obtained at 21 months of age (NIA aged rodent colonies), shaved the following week, and topically treated with α-KB (32 mM) every other day for one month. All experiments were approved by the UCLA Chancellor's Animal Research Committee.

Another data set relates to hair follicles. As to conditions: treatment group vs control. The source says:
Mouse dorsal skin was shaved before being collected for histological and molecular analyses. Full-thickness skin tissue was then fixed in 10% formalin solution (Sigma, HT501128) overnight and dehydrated for embedding in paraffin. […] Images were captured by Leica Aperio ScanScope AT brightfield system at ×20 magnification.

Data set [5] has as its system autophagy related markers. The experiment in a line: Western blot analysis of autophagy related markers in telogen skin. Type of data set: in vivo, mouse. How it is done: as §2
Data set [6] concerns aged C57BL/6J mice. The experiment in a line: Oral α-KB treatment of aged mice (hair loss / hair coating). It counts as in vivo, mouse. The note with it: 8 mM in drinking water over 30 weeks, aged female mice, 131 weeks of age. How it is done:
For oral α-KB treatment, aged male and female C57BL/6J mice were obtained at 87 weeks of age (NIA aged rodent colonies). Mice were housed in a controlled SPF facility (22±2° C., 6:00-18:00, 12 h/12 h light/dark cycle) at UCLA. […] Treatment with either water (vehicle control), or α-KB (90 mg/kg bodyweight) in drinking water, started when mice were at 101 weeks of age. For topical α-KB treatment, aged male C57BL/6J mice were obtained at 21 months of age (NIA aged rodent colonies), shaved the following week, and topically treated with α-KB (32 mM) every other day for one month. All experiments were approved by the UCLA Chancellor's Animal Research Committee.

SMILES strings stand for the structures. “Also recorded” adds a separate entry of the source.

Turning to `Cc1cc(Nc2cc(Cl)nc(Oc3ccc([N+](=O)[O-])cc3)n2)n[nH]1` [autophinib], in [1] (autophinib 4 mM, male mice shaved Postnatal Day 53, topical every other day, Day 20 post-treatment), the “Effect of co-treatment on hair regeneration by α-KG (64 mM)” value is “inhibits hair regeneration by α-KG”. Moreover, the “Effect of co-treatment on SMER28 (2 mM) induced hair regeneration” value in data set [1] (autophinib 4 mM, mice shaved Postnatal Day 51, topical every other day, Day 20 post-treatment) is “inhibited; also recorded: prevented hair regeneration by SMER28”.
`CO/C1=C\C(C)=C\[C@@H](C)[C@@H](O)[C@@H](C)C/C(C)=C/C=C/[C@H](OC)[C@@H]([C@@H](C)[C@@H](O)[C@H](C)[C@@]2(O)C[C@@H](O)[C@H](C)[C@@H](C(C)C)O2)OC1=O` [bafilomycin A1]: in data set [1] (bafilomycin 200 μM, male mice shaved Postnatal Day 52, topical every other day, Day 21 post-treatment), the “Effect of co-treatment on hair regeneration by α-KG (64 mM)” value is reported as “inhibits hair regeneration by α-KG”.
Regarding `C=CCNc1ncnc2ccc(Br)cc12` [SMER28], the “p62 transcript levels (quantitative RT-PCR)” value in the data set with p62 transcript is “increased”. For the same compound, the “Rapid anagen entry on whole dorsal telogen skin” value in data set [1] is “observed from time to time”. Also, the Hair regeneration result in data set [1] (male mice shaved Postnatal Day 45, topical 1 mM daily, Day 23 post-treatment) is on record as “greatly induced hair regeneration”; in [1] (mice shaved Postnatal Day 51, topical 2 mM every other day, Day 20 post-treatment), “induced hair regeneration”. Also, the “p62 expression (Western blot)” value in the data set on p62/SQSTM1 is “increased”. Besides, the “Beclin 1 S14 phosphorylation (mTOR-dependent)” value in data set [2] is “not increased”. Also, the “LC3 expression (Western blot)” value in the data set on LC3 was “increased”. The “Beclin 1 S91 phosphorylation (AMPK-dependent)” value in data set [3] is given as “not increased”.
For the compound `CC[C@H]1/C=C/C=C/C[C@@H](C)[C@H](O)[C@@](C)(O)C(=O)[C@@H](C)[C@H](O)[C@@H](C)C(=O)[C@@H](C)[C@H](O)[C@@H](C)/C=C/C(=O)O[C@@H]2[C@H](C)[C@H](CC1)O[C@]1(CC[C@H](C)[C@H](C[C@@H](C)O)O1)[C@H]2C` [oligomycin], the “Rapid anagen entry on whole dorsal telogen skin” value in data set [1] is on record as “observed from time to time”. In [1] (female mice shaved Postnatal Day 58, topical 10 μM every other day, Day 26 post-treatment), the “Hair regeneration in female mice” value is “stimulate hair regeneration”. Also, the Hair regeneration result in [1] (male mice shaved Postnatal Day 44, topical 100 μM every other day, Day 23 post-treatment) is listed as “similarly promoted hair regeneration”; in data set [1] (male mice shaved Postnatal Day 44, topical 100 μM every other day, Day 23 post-treatment, listed as Oligomycin), “induces hair regeneration”. Further, the “Beclin 1 S14 phosphorylation (mTOR-dependent)” value in [2] was “increased”. Also, in the data set on LC3, the “LC3 expression (Western blot)” value is on record as “Increased autophagy”. In addition, the “Beclin 1 S91 phosphorylation (AMPK-dependent)” value in data set [3] was “increased”.
As to `O=C(O)CCC(=O)C(=O)O` [α-KG, α-ketoglutarate], the “Hair growth / regeneration in shaved aged animals” value with aged C57BL/6J mice [4] is on record as “did not visibly increase”. The “Follicles and proliferation marker Ki-67 expression” value in the data set with hair follicles was “More follicles and high proliferation marker Ki-67 expression”.
For the compound `CCC(=O)C(=O)O` [α-KB, α-ketobutyrate], the “Hair growth / regeneration in shaved aged animals” value in the data set with aged C57BL/6J mice [4] is recorded as “only moderately promoted hair growth”. The “Rapid anagen entry on whole dorsal telogen skin” value in data set [1] is recorded as “never”. Moreover, the Hair regeneration result in [1] (male mice shaved Postnatal Day 44, topical 32 mM every other day, Day 39 post-treatment) is “induces hair regeneration; also recorded: substantially induced skin pigmentation and hair regeneration”. The “LC3 expression (Western blot)” value in the data set on LC3 is “elevated”. Also, the “Phosphorylated Beclin 1 (Western blot)” value in data set [5] (telogen skin of mice treated 5 days) is “elevated”. Further, the “Hair loss / hair coating in aged mice” value in the data set on aged C57BL/6J mice [6] is listed as “negates hair loss; also recorded: greatly improved hair coating”.
As for `CO[C@H]1C[C@@H]2CC[C@@H](C)[C@@](O)(O2)C(=O)C(=O)N2CCCC[C@H]2C(=O)O[C@H]([C@H](C)C[C@@H]2CC[C@@H](O)[C@H](OC)C2)CC(=O)[C@H](C)/C=C(\C)[C@@H](O)[C@@H](OC)C(=O)[C@H](C)C[C@H](C)/C=C/C=C/C=C/1C` [rapamycin], in data set [1] (topical 16 μM (data not shown)), the Adverse skin effect entry is “hair loss and open wounds”.
As to `NC(=O)c1ncn([C@@H]2O[C@H](COP(=O)(O)O)[C@@H](O)[C@H]2O)c1N` [AICAR, 5-aminoimidazole-4-carboxamide ribonucleotide], in [1], the “Rapid anagen entry on whole dorsal telogen skin” value is given as “never”. In addition, the Hair regeneration entry in data set [1] (male mice shaved Postnatal Day 44, topical 16 mM every other day, Day 41 post-treatment) is given as “induces hair regeneration; also recorded: stimulated”.
For `CN(C)C(=N)N=C(N)N` [metformin], in data set [1], the “Rapid anagen entry on whole dorsal telogen skin” value is “never”. Also, the Hair regeneration entry in [1] (male mice shaved Postnatal Day 43, topical 160 mM every other day, vehicle H2O, Day 48 post-treatment) was “induces hair regeneration; also recorded: similarly induced”. In addition, the Autophagy induction entry in data set [5] (topical treatment of mouse skin) is “similarly induced”.
